The text below walks through data of ChEMBL document CHEMBL5046228 (Eur J Med Chem, 2022).

What all share (format): functional
The test system of assay [1] is NCI-H1975. Put plainly: Induction of cell cycle arrest in human NCI-H1975 cells assessed as accumulation at G0/G1 phase at 0.1 uM after 36 hrs by PI staining based flow cytometry analysis (reference value: 24.2%). (In flow cytometry, cells or beads pass a laser one at a time.)
For assay [2], the system named is NCI-H1975. As to the kind of experiment: Induction of apoptosis in human NCI-H1975 cells assessed as increase in early apoptotic cells at 0.1 uM after 36 hrs by annexin-V-FITC/PI staining based flow cytometric analysis (reference value: 1.24%).
The test system of assay [3] is NCI-H1975. Put plainly: Induction of apoptosis in human NCI-H1975 cells assessed as increase in late apoptotic cells at 0.1 uM after 36 hrs by annexin-V-FITC/PI staining based flow cytometric analysis (reference value: 3.85%).

With `C#CCN(C)CCN(C)c1cc(OC)c(Nc2nccc(Nc3cn(C)c4ccccc34)n2)cc1NC(=O)C=C`, the Activity is given as 19.1% in assay [1], 4.45% in assay [2] and 3.3% in assay [3].
